# From PMC6253875, “Synthesis and Evaluation of Non-peptidic Cysteine Protease Inhibitors of P. falciparum Derived from Etacrynic Acid” (Molecules, 2008)
# Read-outs that look alike come from different tables or passages of the source.
# Key:
# [1] = target: T1, falcipain-2 (Plasmodium falciparum, UniProt Q8I6U4); assay: Inhibition of recombinant falcipain-2, fluorometric microplate assay (Cbz-Phe-Arg-AMC); assay type: biochemical
# T1 construct: made in house; host or cells: E. coli
# T1 sequence (Q8I6U4 244-484): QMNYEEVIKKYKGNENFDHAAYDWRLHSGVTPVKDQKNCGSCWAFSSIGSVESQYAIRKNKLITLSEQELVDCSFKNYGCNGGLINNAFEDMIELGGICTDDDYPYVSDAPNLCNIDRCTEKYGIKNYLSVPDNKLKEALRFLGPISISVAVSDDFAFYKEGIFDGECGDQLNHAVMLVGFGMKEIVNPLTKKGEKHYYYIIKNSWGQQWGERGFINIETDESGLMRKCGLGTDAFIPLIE
# Procedure: (§1) Recombinant falcipain-2 and falcipain-3 were produced as previously described. Inhibitory activities against recombinant falcipain-2 and falcipain-3 were evaluated in fluorometric microplate assays using the substrates Cbz-Phe-Arg-AMC and Cbz-Leu-Arg-AMC (AMC, 7-amino-4-methyl-coumarin). The cysteine protease inhibitor E-64 was used as a positive control. The solvent DMSO was used as negative control. […] The in vitro data for the etacrynic acid derivatives are compared to those of the well known drug chloroquine and to E-64.
# (§2) Falcipain-2 and falcipain-3 were recombinantly expressed in E. coli and refolded to active enzyme as previously described.
# (§3) IC50 values for inhibition of falcipain-2 and falcipain-3 were determined as described previously using the fluorogenic substrates Cbz-Phe-Arg-AMC and Cbz-Leu-Arg-AMC, respectively (AMC, 7-amino-4 methylcoumarin). As a positive control the well-known cysteine protease inhibitor E-64 [7, 25, 26] and as a negative control the solvent (DMSO) was used. Dose-dependent effects of compounds on parasite development (P. falciparum strain W2) were quantified by flow cytometry according to a previously published method. First, a screening with inhibitor concentrations of […] was performed and the percentage activity of infected red blood cells (RBCs) relative to the negative control was determined. […] Chloroquine and E-64 were used as positive controls, and the solvent DMSO was used as a negative control. For selected compounds assays with the P. falciparum strain 3D7 were performed using a fluorometric assay with Hoechst-33258 [28], or the microculture tetrazolium test measuring parasite lactate dehydrogenase activity. The parasites were cultivated in vitro as described previously. Compounds were screened at concentrations between 1 nM and 100 μM. Synchronized ring stages were plated in 96-well plates at a parasitemia of 1%, in the presence of the compounds (dissolved in DMSO). Incubation of parasites with DMSO alone at a concentration of 0.5% v/v was used as a negative control. IC50 values were calculated by non-linear regression analyses using the programs GaphPad® Prism 4 and GraFit® [31, 32].
# [2] = test system: P. falciparum strain W2; assay: Antiplasmodial activity in vitro, parasite development quantified by flow cytometry; assay type: cell-based, Plasmodium falciparum; settings: W2 strain (CQ-resistant), ni = no inhibition; for IC50: read-out: P. f. 3D7/W2, IC50
# Procedure: as §3
# [3] = target: T2, falcipain-3 (Plasmodium falciparum, UniProt Q8IIL0); assay: Inhibition of recombinant falcipain-3, fluorometric microplate assay (Cbz-Leu-Arg-AMC); assay type: biochemical
# T2 construct: made in house; host or cells: E. coli
# T2 sequence (Q8IIL0 243-492): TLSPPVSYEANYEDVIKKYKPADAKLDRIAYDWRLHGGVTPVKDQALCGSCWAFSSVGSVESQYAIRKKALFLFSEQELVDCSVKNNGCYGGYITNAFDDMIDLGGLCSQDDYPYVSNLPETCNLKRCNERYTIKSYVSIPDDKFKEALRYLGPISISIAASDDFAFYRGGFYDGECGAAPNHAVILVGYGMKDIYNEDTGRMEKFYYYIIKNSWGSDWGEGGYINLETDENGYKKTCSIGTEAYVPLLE
# Procedure: as §1, §2, §3
# [4] = test system: P. falciparum strain 3D7; assay: Antiplasmodial activity in vitro, Hoechst-33258 fluorometric assay or parasite lactate dehydrogenase test; assay type: cell-based; settings: Plasmodium falciparum; 3D7 strain (CQ-sensitive); read-out: P. f. 3D7/W2, IC50
# Procedure: as §1, §3
# [5] = In vitro cytotoxicity assay; assay type: cell-based; settings: human, 293T human kidney epithelium cells; 293T cells
# Procedure: Recombinant falcipain-2 and falcipain-3 were produced as previously described. […] The cysteine protease inhibitor E-64 was used as a positive control. The solvent DMSO was used as negative control. […] For the experimental procedures, cells were detached from the flasks with a rubber policeman, washed twice with PBS (phosphate-buffer saline) containing 1 mL trypsin-EDTA (1 x), and suspended at 2 x 10^6 cells mL^-1 in complete medium. Inhibitor assays were carried out as described elsewhere except that the cell concentration used in this study was 2 x 10^4 mL^-1 well^-1 [33].
# [6] = recombinant falcipain-2, values marked ^a: only one experiment, ni = no inhibition, read-out: FP-2 IC50
# [7] = recombinant falcipain-3, ni = no inhibition, read-out: FP-3 IC50
# [8] = recombinant falcipain-2, values marked ^a: only one experiment, ni = no inhibition
# [9] = recombinant falcipain-3, ni = no inhibition
# [10] = Plasmodium falciparum, 3D7 / W2
"IC50 [1, 6]","P. f. 3D7/W2, IC50 [2]","IC50 [3, 7]",SMILES,also measured
269 ± 21 µM,nic,87.2 ± 6 µM,C=C(CC)C(=O)c1ccc(OCC(=O)Nc2ccccc2)c(Cl)c1Cl [Compound 13],–
318 ± 14 µM,–,–,C=C(CC)C(=O)c1ccc(OCC(=O)NC(C)(C)C(N)=O)c(Cl)c1Cl [Compound 14],"IC50 [2, 10]: 29.3 ± 3.4 µM; FP-3 IC50 [3, 9]: ni"
212 ± 17 µM,nic,–,C=C(CC)C(=O)c1ccc(OCC(=O)NCC(=O)N[C@@H](C)C(N)=O)c(Cl)c1Cl [Compound 15],"FP-3 IC50 [3, 9]: ni"
242 ± 19 µM,nic,–,C=C(CC)C(=O)c1ccc(OCC(=O)NCC(=O)N[C@@H](Cc2ccccc2)C(N)=O)c(Cl)c1Cl [Compound 16],"FP-3 IC50 [3, 9]: ni"
305 ± 30 µM,nic,479 ± 23 µM,C=C(CC)C(=O)c1ccc(OCC(=O)N2CCOCC2)c(Cl)c1Cl [Compound 17],–
255 ± 4 µM,nic,153 ± 16 µM,C=C(CC)C(=O)c1ccc(OCC(=O)NC(C)(C)C)c(Cl)c1Cl [Compound 18],–
184 ± 17 µM,nic,158 ± 17 µM,C=C(CC)C(=O)c1ccc(OCC(=O)NCCCC)c(Cl)c1Cl [Compound 20],–
182 ± 9 µM,nic,123 ± 8 µM,C=C(CC)C(=O)c1ccc(OCC(=O)NCCCCCC)c(Cl)c1Cl [Compound 21],–
–,nic,–,"C=C(CC)C(=O)c1ccc(OCC(=O)NC(CCC(=O)O)C(=O)O)c(Cl)c1Cl (centres unmarked) [Compound 22, 2-{2-[2,3-Dichloro-4-(2-methylene-butyryl)-phenoxy]acetylamino}pentanedioic acid]","FP-2 IC50 [1, 8]: ni; FP-3 IC50 [3, 9]: ni"
57.1 ± 13 µM,–,96.5 ± 0.6 µM,"C=C(CC)C(=O)c1ccc(OCC(=O)NCCCCCC(=O)O)c(Cl)c1Cl [Compound 23, 6-{2-[2,3-Dichloro-4-(2-methylene-butyryl)-phenoxy]acetylamino}-hexanoic acid]","IC50 [2, 10]: 18.8 ± 0.9 µM; IC50 [5]: > 160 µM"
3 ± 1.1 µM,–,11.9 ± 1.1 µM,"C=C(CC)C(=O)c1ccc(OCC(=O)NCCCCCCNC(=O)CCCCC2SCC3NC(=O)NC32)c(Cl)c1Cl (centres unmarked) [Compound 24, 5-(2-Oxo-hexahydro-thieno[3,4-d]imidazol-4-yl)pentanoic acid (6-{2-[2,3-dichloro-4-(2-methylene-butyryl)-phenoxy]acetylamino}-hexyl)-amide]","IC50 [2, 10]: 9 ± 0.4 µM"
531 µM,ni^c,–,CCC(C)C(=O)c1ccc(OCC(=O)O)c(Cl)c1Cl (centres unmarked) [Compound 25],"FP-3 IC50 [3, 9]: ni"
484 µM,ni^c,–,"CCCC(=O)c1ccc(OCC(=O)NC(C)(C)C)c(Cl)c1Cl [Compound 26, N-tert-butyl-2-(4-butyryl-2,3-dichloro-phenoxy)-acetamide]","FP-3 IC50 [3, 9]: ni"
713 µM,ni^c,–,"CCCCNC(=O)COc1ccc(C(=O)CCC)c(Cl)c1Cl [Compound 27, N-butyl-2-(4-butyryl-2,3-dichloro-phenoxy)-acetamide]","FP-3 IC50 [3, 9]: ni"
80 ± 6 µM,–,–,"CCCC(=O)c1ccc(OCC(=O)NC(C)(C)C)c(F)c1 [Compound 28, N-tert-butyl-2-(4-butyryl-2-fluorophenoxy)acetamide]","IC50 [2, 10]: 66.4 ± 2.2 µM"
80 ± 6 µM,–,–,"CCCC(=O)c1ccc(OCC(=O)OC(C)(C)C)c(F)c1 [Compound 29, Tert-butyl-2-(4-butyryl-2-fluorophenoxy)acetate]",–

# Second part, the molecule before the results:
SMILES,"IC50 [1, 6]","P. f. 3D7/W2, IC50 [2]","IC50 [3, 7]",also measured
C=C(CC)C(=O)c1ccc(OCC(=O)OCC)c(Cl)c1 [Compound 1],498 ± 8 µM,ni^c,346 ± 14 µM,–
C=C(CC)C(=O)c1ccc(Cl)cc1OCC(=O)OCC [Compound 2],110 ± 5 µM,ni^c,381 ± 21 µM,–
"C=C(CC)C(=O)c1ccc(OCC(=O)OC(C)(C)C)c(F)c1 [Compound 3, Tert-butyl 2-(2-fluoro-4-(2-methylenebutanoyl)phenoxy)acetate]",–,–,–,"FP-2 IC50 [1, 8]: ni; IC50 [4]: 142 ± 5 µM"
"C=C(CC)C(=O)c1ccc(OCC(=O)O)c(F)c1 [Compound 4, 2-(2-fluoro-4-(2-methylenebutanoyl)phenoxy)acetic acid]",–,–,–,IC50 [4]: 79.8 ± 6 µM
"C=C(CC)C(=O)c1ccc(OCC(=O)NC(C)(C)C)c(F)c1 [Compound 5, N-tert-butyl-2-(2-fluoro-4-(2-methylenebutanoyl)phenoxy)acetamide]",80 ± 5 µM,–,–,IC50 [4]: 205 ± 9 µM
"C=C(CC)C(=O)c1ccc(OCC(=O)NCCCC)c(F)c1 [Compound 6, N-butyl-2-(2-fluoro-4-(2-methylenebutanoyl)phenoxy)acetamide]",–,–,–,"melting point: 73 °C; FP-2 IC50 [1, 8]: ni; IC50 [4]: 141 ± 4 µM"
"C=C(CC)C(=O)c1ccc(OCC(=O)NC(C(=O)OC)C(C)CC)c(F)c1 (centres unmarked) [Compound 7, Methyl-2-(2-(2-fluoro-4-(2-methylenebutanoyl)phenoxy)acetamido)-3-methylpentanoate]",–,–,–,"FP-2 IC50 [1, 8]: ni"
"C=C(CC)C(=O)c1ccc(OCC(=O)O)c(Cl)c1Cl [Compound 8, etacrynic acid]",443 ± 17 µM,ni^c,–,"FP-3 IC50 [3, 9]: ni"
C=C(CC)C(=O)c1ccc(OCC(=O)OCC)c(Cl)c1Cl [Compound 9],60.6 ± 4.2 µM,ni^c,163 ± 5.6 µM,–
C=C(CC)C(=O)c1ccc(OCC(=O)N[C@@H](C)C(=O)OCc2ccccc2)c(Cl)c1Cl [Compound 10],178 ± 14 µM,ni^c,56.7 ± 5.7 µM,–
C=C(CC)C(=O)c1ccc(OCC(=O)NCc2ccccc2)c(Cl)c1Cl [Compound 11],333 ± 5 µM,ni^c,158 ± 11 µM,–
C=C(CC)C(=O)c1ccc(OCC(=O)N[C@H](C)C(=O)OCc2ccccc2)c(Cl)c1Cl [Compound 12],165 ± 12 µM,–,–,–
C=C(CC)C(=O)c1ccc(OCC(=O)N2CCN(CC)CC2)c(Cl)c1Cl [Compound 19],–,–,–,"IC50 [1]: 144 ± 11 µM; IC50 [2, 10]: 27.4 ± 4.1 µM; IC50 [3]: 557 ± 23 µM"
"CCCCNC(=O)COc1ccc(C(=O)CCC)cc1F [Compound 30, N-butyl-2-(4-butyryl-2-fluorophenoxy)acetamide]",–,–,–,"FP-2 IC50 [1, 8]: ni"
"CCCC(=O)c1ccc(OCC(=O)NC(C)(C)CO)c(F)c1 [Compound 31, 2-(4-Butyryl-2-fluorophenoxy)-N-(1-hydroxy-2-methylpropan-2-yl)acetamide]",–,–,–,"FP-2 IC50 [1, 8]: ni"
"CCCC(=O)c1ccc(OCC(=O)NC(C(=O)OC)C(C)CC)c(F)c1 (centres unmarked) [Compound 32, Methyl 2-(2-(4-butyryl-2-fluorophenoxy)acetamido)-3-methylpentanoate]",–,–,–,"FP-2 IC50 [1, 8]: ni"
"CC(C)C[C@H](NC(=O)[C@H]1O[C@@H]1C(=O)O)C(=O)NCCCCN=C(N)N [E-64, reference compound]",0.015 ± 0.008 µM,–,0.075 ± 0.02 µM,IC50 [2]: 5.3 ± 1.05 µM
